We go through 16 compounds from US10143681B2, “Factor XIa inhibitors” (MERCK SHARP & DOHME CORP., priority 2016, dated 2018).

The structures appear in SMILES notation.

The target in one assay is human Factor XIa (Homo sapiens (Human), UniProt P03951). In words: Factor XIa Assay. It is filed as biochemical. To be noted: for IC50: human Factor XIa 0.04 nM, 30 min pre-incubation at 25° C., substrate GPR-AFC, read-out: FXIa IC50; for inhibition at 1 µM: @ 1000 nM compound, read-out: FXIa % Inh. @ 1000 nM. As for the experimental part: The effectiveness of a compound of the present invention as an inhibitor of Coagulation Factor XIa can be determined using a relevant purified serine protease, and an appropriate synthetic substrate. The rate of hydrolysis of the chromogenic or fluorogenic substrate by the relevant serine protease was measured both in the absence and presence of compounds of the present invention. Assays were conducted at room temperature or at 37° C. […] A decrease in the rate of fluorescence change in the presence of inhibitor is indicative of enzyme inhibition. Such methods are known to one skilled in the art. The results of this assay are expressed as the half-maximal inhibitory concentrations (IC50), or the inhibitory constant, Ki.
Compounds were pre-incubated for 30 minutes at 25° C. with human (0.04 nM) Factor XIa in 50 mM HEPES buffer with 150 mM sodium chloride, 5 mM calcium chloride, 0.1% PEG 8000, pH 7.4. Factor XIa enzymatic activity was determined by addition of the substrate glycine-proline-arginine-7-amido-4-trifluoromethylcoumarin (GPR-AFC) and measurement of the fluorescence at 400/505 nm after a 60 minute incubation at 25° C. The % inhibition for each data point was calculated from the data and analyzed using the log (inhibitor) vs. response four parameters equation to determine the half-maximal inhibitory concentrations (IC50). The IC50 were converted to equilibrium inhibitory constants (Ki) using the Cheng-Prusoff equation.

Assay [1] has as its system Human plasma (intrinsic coagulation cascade). In words: Activated Partial Thromboplastin Time (aPTT) Assay. To be noted: concentration that causes a 50% (1.5×) increase of clot time over vehicle. How it is done:
Activated partial thromboplastin time (aPTT) is a clotting test that measures the intrinsic coagulation cascade. The test is performed in sodium citrated plasma. Human plasma is made by collecting blood from healthy donors of both genders into Na citrate tubes (Sarstedt coagulation 9NC/10 ml). Blood is centrifuged at 1500×g and the plasma is collected. aPTT is checked on each individual donor and those within the normal range (28-40 seconds) are pooled, aliquoted, and stored at −80 C. Test samples are prepared by spiking inhibitors or vehicle into plasma. These spiked samples are then run on a coagulation analyzer (STA-R Evolution, Stago Diagnostica). In general, the analyzer performs the following steps: Factor XII is activated by addition of ellagic acid (Pacific Hemostasis), and then time to clot is measured after re-calcification of the sample. Inhibition of FXI will cause aPTT clot time to be prolonged. The data is expressed as percent increase over vehicle control clot time and the concentration that causes a 50% (1.5×) percent increase of clot time are reported.

human Factor XIa, sequence (P03951 388-625): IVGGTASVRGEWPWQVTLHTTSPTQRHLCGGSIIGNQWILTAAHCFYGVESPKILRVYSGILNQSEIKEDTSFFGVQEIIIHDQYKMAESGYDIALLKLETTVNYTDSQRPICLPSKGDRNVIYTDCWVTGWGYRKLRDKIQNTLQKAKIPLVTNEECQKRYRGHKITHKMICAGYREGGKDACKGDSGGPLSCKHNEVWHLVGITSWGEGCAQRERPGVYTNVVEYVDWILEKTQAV
human Factor XIa, sequence (P03951 19-387 partner): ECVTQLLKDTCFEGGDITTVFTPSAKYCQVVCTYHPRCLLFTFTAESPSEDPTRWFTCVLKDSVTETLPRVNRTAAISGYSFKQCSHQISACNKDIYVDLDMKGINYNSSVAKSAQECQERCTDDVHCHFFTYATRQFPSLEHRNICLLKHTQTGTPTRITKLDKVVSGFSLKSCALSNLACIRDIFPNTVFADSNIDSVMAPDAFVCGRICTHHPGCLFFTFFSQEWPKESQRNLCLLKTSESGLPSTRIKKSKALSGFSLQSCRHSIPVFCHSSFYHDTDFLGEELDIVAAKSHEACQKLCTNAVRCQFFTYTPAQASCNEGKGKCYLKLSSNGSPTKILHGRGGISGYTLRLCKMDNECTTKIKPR

The IC50 is the midpoint of a concentration-inhibition curve. With `O=C(O)c1ccc(NC(=O)C(CC2CCCC2)c2ccc(-c3c(OC(F)F)ccc(Cl)c3F)c[n+]2[O-])cc1` (single isomer, unassigned) [Example 18, (S)- or (R)-4-[(2-{5-[3-chloro-6-(difluoromethoxy)-2-fluorophenyl]-1-oxidopyridin-2-yl}-3-cyclopentylpropanoyl)amino] benzoic acid], the IC50 on human Factor XIa stood at 100 nM. The “aPTT (1.5x)” value in assay [1] is greater than 100 µM.

On to `O=C(O)c1ccc(NC(=O)[C@@H](CC2CCC2)c2ccc(-c3c(C(F)F)ccc(Cl)c3F)c[n+]2[O-])cc1` (mixture of isomers) [Example 4, (S)- and (R)-2-(1-((4-Carboxyphenyl)amino)-3-cyclobutyl-1-oxopropan-2-yl)-5-(3-chloro-6-(difluoromethyl)-2-fluorophenyl)pyridine 1-oxide], for which the “aPTT (1.5x)” value in assay [1] came to 0.55 µM.

`CC1(O)CC(CC(C(=O)Nc2ccc(C(=O)O)cc2)c2ccc(-c3c(C(F)F)ccc(Cl)c3F)c[n+]2[O-])C1` (single isomer, unassigned) [Example 85, 2-(1-((4-carboxyphenyl)amino)-3-(3-hydroxy-3-methylcyclobutyl)-1-oxopropan-2-yl)-5-(3-chloro-6-(difluoromethyl)-2-fluorophenyl)pyridine 1-oxide]: in assay [1], the “aPTT (1.5x)” value was determined as 1 µM.

As to `O=C(O)c1ccc(NC(=O)[C@@H](CC2CCC2)c2ccc(-c3c(C(F)F)ccc(Cl)c3F)c[n+]2[O-])cc1` (mixture of isomers) [Example 3, (S)- and (R)-2-(1-((4-Carboxyphenyl)amino)-3-cyclobutyl-1-oxopropan-2-yl)-5-(3-chloro-6-(difluoromethyl)-2-fluorophenyl)pyridine 1-oxide], the IC50 at human Factor XIa was 39 nM. For the same compound, in assay [1], the “aPTT (1.5x)” value was greater than 100 µM.

`O=C(O)c1ccc(NC(=O)C(CC2CC2F)c2ccc(-c3c(C(F)F)ccc(Cl)c3F)c[n+]2[O-])cc1` (single isomer, unassigned) [Example 92, 2-(1-((4-carboxyphenyl)amino)-3-(2-fluorocyclopropyl)-1-oxopropan-2-yl)-5-(3-chloro-6-(difluoromethyl)-2-fluorophenyl)pyridine 1-oxide]: the “aPTT (1.5x)” value in assay [1] was found to be 100 µM.

Consider `C[C@@H]1C[C@H]1C[C@@H](C(=O)Nc1ccc(C(=O)O)cc1)c1ccc(-c2c(OC(F)F)ccc(Cl)c2F)c[n+]1[O-]` (single isomer, unassigned) [Example 56], for which the IC50 on human Factor XIa was 0.38 nM. For the same compound, the “aPTT (1.5x)” value in assay [1] is 1.34 µM.

For the compound `CC1CCC1CC(C(=O)Nc1ccc(C(=O)O)cc1)c1ccc(-c2c(OC(F)F)ccc(Cl)c2F)c[n+]1[O-]` (single isomer, unassigned) [Example 105, 2-(1-((4-carboxyphenyl)amino)-3-(2-methylcyclobutyl)-1-oxopropan-2-yl)-5-(3-chloro-6-(difluoromethoxy)-2-fluorophenyl)pyridine 1-oxide], the IC50 on human Factor XIa was 0.61 nM. The “aPTT (1.5x)” value in assay [1] is 1.13 µM.

`CC1(O)CC(CC(C(=O)Nc2ccc(C(=O)O)cc2)c2ccc(-c3c(C(F)F)ccc(Cl)c3F)c[n+]2[O-])C1` (single isomer, unassigned) [Example 83, 2-(1-((4-carboxyphenyl)amino)-3-(3-hydroxy-3-methylcyclobutyl)-1-oxopropan-2-yl)-5-(3-chloro-6-(difluoromethyl)-2-fluorophenyl)pyridine 1-oxide]: the “aPTT (1.5x)” value in assay [1] turned out to be 0.62 µM.

As for `CCOc1ccc(Cl)c(F)c1-c1ccc(C(CC2CC2)C(=O)Nc2ccc(C(=O)O)cc2)[n+]([O-])c1` (single isomer, unassigned) [Example 8, (S)- or (R)-4-({2-[5-(3-chloro-6-ethoxy-2-fluorophenyl)-1-oxidopyridin-2-yl]-3-cyclopropylpropanoyl}amino) benzoic acid], the IC50 at human Factor XIa came out at 968 nM. Further, in assay [1], the “aPTT (1.5x)” value was greater than 100 µM.

As to `O=C(O)c1ccc(NC(=O)[C@@H](CC2CC2)c2ccc(-c3c(C(F)F)ccc(Cl)c3F)c[n+]2[O-])cc1` (mixture of isomers) [Example 23, (S)- and (R)-2-(1-((4-carboxyphenyl)amino)-3-cyclopropyl-1-oxopropan-2-yl)-5-(3-chloro-6-(difluoromethyl)-2-fluorophenyl)pyridine 1-oxide], the “aPTT (1.5x)” value in assay [1] came to 0.61 µM.

Consider `CC(C)Oc1ccc(Cl)c(F)c1-c1ccc(C(CC2CC2)C(=O)Nc2ccc(C(=O)O)cc2)[n+]([O-])c1` (single isomer, unassigned) [Example 16, (S)- or (R)-4-[(2-{5-[3-chloro-2-fluoro-6-(1-methylethoxy)phenyl]-1-oxidopyridin-2-yl}-3-cyclopropylpropanoyl)amino] benzoic acid], for which, at human Factor XIa, the inhibition at 1 µM was 33% and the IC50 was greater than 1000 nM. In assay [1], the “aPTT (1.5x)” value is greater than 100 µM.

With `O=C(O)c1ccc(NC(=O)C(CC2CC2)c2ccc(-c3cc(Cl)ccc3OC(F)F)c[n+]2[O-])cc1` (single isomer, unassigned) [Example 6, (S)- or (R)-4-[(2-{5-[5-chloro-2-(difluoromethoxy)phenyl]-1-oxidopyridin-2-yl}-3-cyclopropylpropanoyl)amino] benzoic acid], on human Factor XIa, the inhibition at 1 µM was determined as 30% and the IC50 is greater than 1000 nM. Besides, in assay [1], the “aPTT (1.5x)” value is greater than 100 µM.

Turning to `COc1cc(C(CC2CC2)C(=O)Nc2ccc(C(=O)O)cc2)[n+]([O-])cc1-c1c(C(F)F)ccc(Cl)c1F` [Example 69, (S)- and (R)-2-(1-((4-carboxyphenyl)amino)-3-cyclopropyl-1-oxopropan-2-yl)-5-(3-chloro-6-(difluoromethyl)-2-fluorophenyl)-4-methoxypyridine 1-oxide], in assay [1], the “aPTT (1.5x)” value was 1.92 µM.

Consider `O=C(O)c1ccc(NC(=O)C(CC2CC2F)c2ccc(-c3c(C(F)F)ccc(Cl)c3F)c[n+]2[O-])cc1` (single isomer, unassigned) [Example 91, 2-(1-((4-carboxyphenyl)amino)-3-(2-fluorocyclopropyl)-1-oxopropan-2-yl)-5-(3-chloro-6-(difluoromethyl)-2-fluorophenyl)pyridine 1-oxide], for which, on human Factor XIa, the IC50 was found to be 27.9 nM. Also, the “aPTT (1.5x)” value in assay [1] was 5.93 µM.

Take `O=C(O)c1ccc(NC(=O)C(CC2CC2)c2ccc(-c3cc(Cl)ccc3C(F)F)c[n+]2[O-])cc1` (single isomer, unassigned) [Example 28, (S)- or (R)-2-(1-((4-carboxyphenyl)amino)-3-cyclopropyl-1-oxopropan-2-yl)-5-(5-chloro-2-(difluoromethyl)phenyl)pyridine 1-oxide]: at human Factor XIa, the IC50 is 293 nM. Moreover, in assay [1], the “aPTT (1.5x)” value was greater than 100 µM.

As for `CC(C)Oc1ccc(Cl)c(F)c1-c1ccc(C(CC2CC2)C(=O)Nc2ccc(C(=O)O)cc2)[n+]([O-])c1` (single isomer, unassigned) [Example 17, (R)- or (S)-4-[(2-{5-[3-chloro-2-fluoro-6-(1-methylethoxy)phenyl]-1-oxidopyridin-2-yl}-3-cyclopropylpropanoyl)amino] benzoic acid], the IC50 on human Factor XIa was found to be 24 nM. For the same compound, the “aPTT (1.5x)” value in assay [1] is greater than 100 µM.
